# Columns and labels:
# M1 muscarinic receptor = biological target: T1, M1 muscarinic receptor (Homo sapiens, UniProt P11229); assay: Functional mobilization of intracellular calcium (FLIPR) in M1-CHO cells; format: cell-based; details: Table 4; for Emax: 100% efficacy is the maximum response obtained with the Carbachol control; for M1 Activity: M1 receptor, calcium mobilization (FLIPR)
# T1 construct: expressed in transfected cells; host or cells: CHO (M1-CHO)
# T1 sequence (P11229 1-460): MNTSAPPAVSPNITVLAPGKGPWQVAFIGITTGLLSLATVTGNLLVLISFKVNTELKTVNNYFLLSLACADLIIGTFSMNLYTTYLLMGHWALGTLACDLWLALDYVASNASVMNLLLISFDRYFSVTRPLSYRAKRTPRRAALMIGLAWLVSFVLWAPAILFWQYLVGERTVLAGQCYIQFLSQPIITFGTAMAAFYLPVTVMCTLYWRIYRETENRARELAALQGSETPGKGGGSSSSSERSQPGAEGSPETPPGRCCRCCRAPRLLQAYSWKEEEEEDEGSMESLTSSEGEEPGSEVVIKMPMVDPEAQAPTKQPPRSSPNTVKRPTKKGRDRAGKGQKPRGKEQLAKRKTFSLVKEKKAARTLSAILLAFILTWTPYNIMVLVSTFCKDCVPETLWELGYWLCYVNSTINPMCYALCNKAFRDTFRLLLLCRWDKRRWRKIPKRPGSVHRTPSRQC
# How it was run: (§1)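 FLIPR Ca2+ read, ex 488/em 540 nm, 60 s. Recombinant CHO lines (M1 or M4), dye-loaded Fluo-3 AM 60-90 min at 37° C, probenecid 1 mM, pH 7.4. Agonist: compound alone; inhibition: 15 min compound pre-incubation, then carbachol at EC80 for that subtype.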
# M4 muscarinic receptor = biological target: T2, M4 muscarinic receptor (Homo sapiens, UniProt P08173); assay: Functional mobilization of intracellular calcium (FLIPR) in M4-CHO cells; format: cell-based; details: Table 4; for Emax: 100% efficacy is the maximum response obtained with the Carbachol control; for M4 Activity: M4 receptor, calcium mobilization (FLIPR)
# T2 construct: expressed in transfected cells; host or cells: CHO (M4-CHO)
# T2 sequence (P08173 1-479): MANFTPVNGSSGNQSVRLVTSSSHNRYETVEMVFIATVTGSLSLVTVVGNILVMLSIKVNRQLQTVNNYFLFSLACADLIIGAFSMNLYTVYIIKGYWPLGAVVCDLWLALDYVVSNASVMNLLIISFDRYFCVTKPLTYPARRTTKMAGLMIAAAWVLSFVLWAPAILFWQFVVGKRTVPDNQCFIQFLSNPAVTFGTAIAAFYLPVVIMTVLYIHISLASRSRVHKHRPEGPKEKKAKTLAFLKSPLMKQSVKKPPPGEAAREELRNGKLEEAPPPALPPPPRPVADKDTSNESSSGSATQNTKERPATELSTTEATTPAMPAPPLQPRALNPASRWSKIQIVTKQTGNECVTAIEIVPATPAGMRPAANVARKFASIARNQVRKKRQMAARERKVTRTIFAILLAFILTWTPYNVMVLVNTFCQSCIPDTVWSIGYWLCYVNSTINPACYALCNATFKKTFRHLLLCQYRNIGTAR
# How it was run: as §1
SMILES,Emax (M1 muscarinic receptor) [%],M1 Activity (M1 muscarinic receptor),Emax (M4 muscarinic receptor) [%],M4 Activity (M4 muscarinic receptor)
CCOC(=O)N1CCC(N2CCC3(CC2)CNc2ccc(F)cc23)CC1 [compound 952],25 to 100,xxx (activity was measured to be less than 2.0 μM),25 to 100,xxx (activity was measured to be less than 2.0 μM)
CC(=O)N1CC2(CCN(C3CCN(c4cnc(C)c(C)n4)CC3)CC2)c2ccccc21 [compound 953],25 to 100,xx (activity was measured to be between 2.0 μM and 5.0 μM),25 to 100,xxx (activity was measured to be less than 2.0 μM)
COCCOC(=O)N1CCCC(N2CCC3(CC2)CN(C(=O)N(C)C)c2ccc(F)cc23)CC1 (stereo not shown) [compound 954],25 to 100,xxx (activity was measured to be less than 2.0 μM),25 to 100,xxx (activity was measured to be less than 2.0 μM)
O=C(N[C@H]1CC2(CCN(CC3CCCCC3)CC2)c2ccccc21)C1CC1 [compound 955],25 to 100,xxx (activity was measured to be less than 2.0 μM),25 to 100,xxx (activity was measured to be less than 2.0 μM)
CCOC(=O)N1CCC(N2CCC3(CC2)CN(C(C)=O)c2c(-c4ccsc4)cccc23)CC1 [compound 956],25 to 100,x (activity was measured to be greater than 5.0 μM),< 25,x (activity was measured to be greater than 5.0 μM)
CN(C)C(=O)N1CC2(CCN(C3CCN(c4nccs4)CC3)CC2)c2cc(F)ccc21 [compound 957],25 to 100,xxx (activity was measured to be less than 2.0 μM),25 to 100,xxx (activity was measured to be less than 2.0 μM)
COCCN1CC2(CCN(C3CCCCCC3)CC2)c2cc(F)ccc21 [compound 958],25 to 100,xxx (activity was measured to be less than 2.0 μM),25 to 100,xxx (activity was measured to be less than 2.0 μM)
CCOC(=O)N1CCC(N2CCC3(CC2)CN(C(=O)N2CCCC2)c2ccccc23)CC1 [compound 959],25 to 100,xx (activity was measured to be between 2.0 μM and 5.0 μM),25 to 100,xxx (activity was measured to be less than 2.0 μM)
CC(C)N(C(=O)N[C@H]1CC2(CCN(C3CC4CC[C@@H]3C4)CC2)c2ccccc21)C(C)C (stereo partly shown) [compound 960],< 25,x (activity was measured to be greater than 5.0 μM),25 to 100,xx (activity was measured to be between 2.0 μM and 5.0 μM)
CCOC(=O)N1CCC(N2CCC3(CC[C@H](NC(=O)N(C)C)c4ccccc43)CC2)CC1 [compound 961],25 to 100,xxx (activity was measured to be less than 2.0 μM),25 to 100,xxx (activity was measured to be less than 2.0 μM)
CC(=O)NC1CCC2(CCN(CCC3CCN(C(=O)OCC(C)C)CC3)CC2)c2ccccc21 (stereo not shown) [compound 962],< 25,x (activity was measured to be greater than 5.0 μM),< 25,x (activity was measured to be greater than 5.0 μM)
CN(C)C(=O)N1CC2(CCN(C3CCN(c4ncnc5ccsc45)CC3)CC2)c2cc(F)ccc21 [compound 965],25 to 100,x (activity was measured to be greater than 5.0 μM),25 to 100,xxx (activity was measured to be less than 2.0 μM)
CC(=O)NC1CCC2(CCN(CCC3CCN(C(=O)C(C)(C)C)CC3)CC2)c2ccccc21 (stereo not shown) [compound 966],25 to 100,xxx (activity was measured to be less than 2.0 μM),< 25,x (activity was measured to be greater than 5.0 μM)
CCc1nccnc1N1CCC(N2CCC3(CC2)CN(C(=O)N(C)C)c2ccc(F)cc23)CC1 [compound 967],25 to 100,xx (activity was measured to be between 2.0 μM and 5.0 μM),25 to 100,xx (activity was measured to be between 2.0 μM and 5.0 μM)
CC(=O)N1CC2(CCN(CC3CCC(C)=CC3C)CC2)c2cc(F)ccc21 (stereo not shown) [compound 968],< 25,x (activity was measured to be greater than 5.0 μM),< 25,x (activity was measured to be greater than 5.0 μM)
CC(=O)NC1CCC2(CCN(CCC3CCN(S(C)(=O)=O)CC3)CC2)c2ccccc21 (stereo not shown) [compound 969],25 to 100,xxx (activity was measured to be less than 2.0 μM),< 25,x (activity was measured to be greater than 5.0 μM)
CC(=O)N1CC2(CCN(C3CC4CCC(C3)N4C(=O)O[C@@H]3CCOC3)CC2)c2ccccc21 (stereo partly shown) [compound 970],25 to 100,xxx (activity was measured to be less than 2.0 μM),25 to 100,xxx (activity was measured to be less than 2.0 μM)
CN(C)C(=O)N1CC2(CCN(C3CCN(C(=O)c4cccc(F)c4)CC3)CC2)c2cc(F)ccc21 [compound 972],25 to 100,xx (activity was measured to be between 2.0 μM and 5.0 μM),< 25,x (activity was measured to be greater than 5.0 μM)
CC(=O)N1CC2(CCN(C3CCN(c4nncs4)CC3)CC2)c2ccccc21 [compound 973],25 to 100,x (activity was measured to be greater than 5.0 μM),< 25,x (activity was measured to be greater than 5.0 μM)
CCOC(=O)N1CC[C@@H](CN2CCC3(CC2)CN(C(=O)N(C)C)c2ccc(F)cc23)C1 [compound 974],25 to 100,xxx (activity was measured to be less than 2.0 μM),25 to 100,xxx (activity was measured to be less than 2.0 μM)
CC(=O)N1CC2(CCN(C3CCN(c4cncc(C5=CCCC5)n4)CC3)CC2)c2ccccc21 [compound 975],< 25,x (activity was measured to be greater than 5.0 μM),< 25,x (activity was measured to be greater than 5.0 μM)
CC(=O)N1CC2(CCN(C3CCN(c4nccs4)CC3)CC2)c2cc(F)ccc21 [compound 976],25 to 100,xxx (activity was measured to be less than 2.0 μM),25 to 100,xxx (activity was measured to be less than 2.0 μM)
CC(=O)NC1CC2(CCN(C3CCN(C(=O)c4cccc(C(F)(F)F)c4)CC3)CC2)c2ccccc21 (stereo not shown) [compound 978],< 25,x (activity was measured to be greater than 5.0 μM),< 25,x (activity was measured to be greater than 5.0 μM)
O=C(N[C@H]1CC2(CCN(C3CC4CC[C@@H]3C4)CC2)c2ccccc21)N1CCOCC1 (stereo partly shown) [compound 979],25 to 100,x (activity was measured to be greater than 5.0 μM),25 to 100,xxx (activity was measured to be less than 2.0 μM)
CCOC(=O)N1C2CCC1CC(N1CCC3(CC(=O)c4cc(F)ccc43)C1)C2 (stereo not shown) [compound 980],> 100,xxx (activity was measured to be less than 2.0 μM),25 to 100,xxx (activity was measured to be less than 2.0 μM)
CCCC#CCOC(=O)N1CC[C@H](CN2CCC3(CC2)CN(C(=O)N(C)C)c2ccc(F)cc23)C1 [compound 981],25 to 100,xxx (activity was measured to be less than 2.0 μM),25 to 100,xxx (activity was measured to be less than 2.0 μM)
Cc1ccc2c(c1)C1(CCN(C3CC4CCC3C4)CC1)CN2C(=O)c1snnc1C (stereo not shown) [compound 982],< 25,x (activity was measured to be greater than 5.0 μM),< 25,x (activity was measured to be greater than 5.0 μM)
O=C1CC2(CCN(C3CCCCCC3)CC2)c2cc(Cl)ccc21 [compound 983],25 to 100,xxx (activity was measured to be less than 2.0 μM),25 to 100,xxx (activity was measured to be less than 2.0 μM)
